This note sets out measurements from US12421225B2, “Heteroaromatic amide derivative and medicament containing the same” (KAKEN PHARMACEUTICAL CO., LTD., priority 2018, dated 2025).

Some results are limits rather than exact numbers.

One series has as its target human Nav1.5 (Homo sapiens (Human), UniProt Q14524). Put plainly: Human Nav1.5 inhibitory activity evaluation (automated patch clamp QPatch16X, HEK293 cells stably expressing human Nav1.5). Format: cell-based. A digest of the protocol:
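Whole-cell automated patch clamp at room temperature on HEK293 stably expressing human Nav1.5; holding −80 mV, 20 consecutive cardiomyocyte action-potential-like test pulses before and after compound (0.1% DMSO). Inhibition measured on inward current at 20th pulse; IC50 from concentration-response curve.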
(The patch-clamp technique gives a direct electrical read-out from membranes.)

The target in the next series is human Nav1.7 (Homo sapiens (Human), UniProt Q15858). Put plainly: Human Nav1.7 inhibitory activity evaluation (automated patch clamp QPatch16X, HEK293A cells stably expressing human Nav1.7 and human Navβ1). Format: cell-based. Put shortly:
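QPatch16X whole-cell recordings at room temperature from HEK293A cells stably expressing human Nav1.7 with Navβ1, CsF-based internal solution, pH 7.4 external, 0.1% DMSO. From −100 mV holding, protocol included a 15 s hold at a potential inactivating ~30-40% of channels; IC50 from inward current at the second −10 mV pulse.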

Setting [1] is: human Nav1.5, automated patch clamp.
Setting [2] is: human Nav1.7, automated patch clamp.
Where [3] appears, read: HEK293 cells stably expressing human Nav1.5, automated patch clamp QPatch16X.
Where [4] appears, read: HEK293A cells stably expressing human Nav1.7 and human Navβ1, automated patch clamp QPatch16X.

Chain of human Nav1.5 (Q14524 whole entry): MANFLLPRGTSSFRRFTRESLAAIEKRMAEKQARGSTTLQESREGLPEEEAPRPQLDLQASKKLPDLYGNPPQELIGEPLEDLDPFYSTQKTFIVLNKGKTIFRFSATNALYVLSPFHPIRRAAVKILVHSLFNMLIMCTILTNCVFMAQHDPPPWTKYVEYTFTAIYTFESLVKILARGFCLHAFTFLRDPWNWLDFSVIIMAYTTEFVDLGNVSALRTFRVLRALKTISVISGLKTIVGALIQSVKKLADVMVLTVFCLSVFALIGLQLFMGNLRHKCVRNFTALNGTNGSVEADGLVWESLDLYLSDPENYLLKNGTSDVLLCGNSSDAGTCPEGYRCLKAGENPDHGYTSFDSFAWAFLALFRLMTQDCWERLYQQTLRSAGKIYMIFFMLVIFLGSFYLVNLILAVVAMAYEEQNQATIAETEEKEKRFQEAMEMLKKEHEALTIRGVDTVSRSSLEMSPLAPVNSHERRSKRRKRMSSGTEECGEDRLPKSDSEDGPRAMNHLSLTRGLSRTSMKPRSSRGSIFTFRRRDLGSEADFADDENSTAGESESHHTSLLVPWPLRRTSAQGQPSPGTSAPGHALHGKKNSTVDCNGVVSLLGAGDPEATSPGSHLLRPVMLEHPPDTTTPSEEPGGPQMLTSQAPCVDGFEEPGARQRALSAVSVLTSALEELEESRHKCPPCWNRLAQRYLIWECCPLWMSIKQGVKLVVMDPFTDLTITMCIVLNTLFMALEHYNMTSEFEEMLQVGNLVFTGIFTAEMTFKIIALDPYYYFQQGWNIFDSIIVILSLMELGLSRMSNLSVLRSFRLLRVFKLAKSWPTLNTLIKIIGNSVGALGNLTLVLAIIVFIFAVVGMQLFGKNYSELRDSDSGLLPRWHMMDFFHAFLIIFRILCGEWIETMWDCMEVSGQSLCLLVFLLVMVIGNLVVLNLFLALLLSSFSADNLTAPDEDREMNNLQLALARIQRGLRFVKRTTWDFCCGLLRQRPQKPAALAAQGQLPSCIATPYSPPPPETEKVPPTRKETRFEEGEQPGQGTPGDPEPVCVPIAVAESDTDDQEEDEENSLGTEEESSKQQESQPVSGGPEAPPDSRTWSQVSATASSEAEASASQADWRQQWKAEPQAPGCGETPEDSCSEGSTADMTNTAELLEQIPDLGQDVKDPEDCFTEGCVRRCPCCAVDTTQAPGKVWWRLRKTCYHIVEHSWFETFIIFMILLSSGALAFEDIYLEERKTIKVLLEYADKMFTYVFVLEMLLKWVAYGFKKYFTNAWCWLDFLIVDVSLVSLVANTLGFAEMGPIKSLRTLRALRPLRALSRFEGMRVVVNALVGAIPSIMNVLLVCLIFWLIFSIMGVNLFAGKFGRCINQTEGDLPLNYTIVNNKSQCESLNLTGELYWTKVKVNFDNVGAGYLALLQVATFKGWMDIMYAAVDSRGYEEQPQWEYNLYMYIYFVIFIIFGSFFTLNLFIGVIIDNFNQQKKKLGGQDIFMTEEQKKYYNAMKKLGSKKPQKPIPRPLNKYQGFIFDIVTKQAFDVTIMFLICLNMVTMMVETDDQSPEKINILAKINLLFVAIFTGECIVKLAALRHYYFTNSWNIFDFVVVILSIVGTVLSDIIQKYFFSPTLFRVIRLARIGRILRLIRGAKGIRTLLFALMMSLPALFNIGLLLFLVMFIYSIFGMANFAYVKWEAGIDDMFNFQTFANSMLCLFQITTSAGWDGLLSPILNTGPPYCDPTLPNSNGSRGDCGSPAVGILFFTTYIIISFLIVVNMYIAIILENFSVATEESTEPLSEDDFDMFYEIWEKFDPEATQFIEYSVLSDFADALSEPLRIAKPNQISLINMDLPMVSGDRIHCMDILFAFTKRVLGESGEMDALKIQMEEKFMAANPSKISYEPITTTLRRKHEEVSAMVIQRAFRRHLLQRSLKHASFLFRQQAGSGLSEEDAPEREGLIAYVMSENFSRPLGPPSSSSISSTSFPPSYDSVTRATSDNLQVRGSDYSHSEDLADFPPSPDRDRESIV
Chain of human Nav1.7 (Q15858 whole entry): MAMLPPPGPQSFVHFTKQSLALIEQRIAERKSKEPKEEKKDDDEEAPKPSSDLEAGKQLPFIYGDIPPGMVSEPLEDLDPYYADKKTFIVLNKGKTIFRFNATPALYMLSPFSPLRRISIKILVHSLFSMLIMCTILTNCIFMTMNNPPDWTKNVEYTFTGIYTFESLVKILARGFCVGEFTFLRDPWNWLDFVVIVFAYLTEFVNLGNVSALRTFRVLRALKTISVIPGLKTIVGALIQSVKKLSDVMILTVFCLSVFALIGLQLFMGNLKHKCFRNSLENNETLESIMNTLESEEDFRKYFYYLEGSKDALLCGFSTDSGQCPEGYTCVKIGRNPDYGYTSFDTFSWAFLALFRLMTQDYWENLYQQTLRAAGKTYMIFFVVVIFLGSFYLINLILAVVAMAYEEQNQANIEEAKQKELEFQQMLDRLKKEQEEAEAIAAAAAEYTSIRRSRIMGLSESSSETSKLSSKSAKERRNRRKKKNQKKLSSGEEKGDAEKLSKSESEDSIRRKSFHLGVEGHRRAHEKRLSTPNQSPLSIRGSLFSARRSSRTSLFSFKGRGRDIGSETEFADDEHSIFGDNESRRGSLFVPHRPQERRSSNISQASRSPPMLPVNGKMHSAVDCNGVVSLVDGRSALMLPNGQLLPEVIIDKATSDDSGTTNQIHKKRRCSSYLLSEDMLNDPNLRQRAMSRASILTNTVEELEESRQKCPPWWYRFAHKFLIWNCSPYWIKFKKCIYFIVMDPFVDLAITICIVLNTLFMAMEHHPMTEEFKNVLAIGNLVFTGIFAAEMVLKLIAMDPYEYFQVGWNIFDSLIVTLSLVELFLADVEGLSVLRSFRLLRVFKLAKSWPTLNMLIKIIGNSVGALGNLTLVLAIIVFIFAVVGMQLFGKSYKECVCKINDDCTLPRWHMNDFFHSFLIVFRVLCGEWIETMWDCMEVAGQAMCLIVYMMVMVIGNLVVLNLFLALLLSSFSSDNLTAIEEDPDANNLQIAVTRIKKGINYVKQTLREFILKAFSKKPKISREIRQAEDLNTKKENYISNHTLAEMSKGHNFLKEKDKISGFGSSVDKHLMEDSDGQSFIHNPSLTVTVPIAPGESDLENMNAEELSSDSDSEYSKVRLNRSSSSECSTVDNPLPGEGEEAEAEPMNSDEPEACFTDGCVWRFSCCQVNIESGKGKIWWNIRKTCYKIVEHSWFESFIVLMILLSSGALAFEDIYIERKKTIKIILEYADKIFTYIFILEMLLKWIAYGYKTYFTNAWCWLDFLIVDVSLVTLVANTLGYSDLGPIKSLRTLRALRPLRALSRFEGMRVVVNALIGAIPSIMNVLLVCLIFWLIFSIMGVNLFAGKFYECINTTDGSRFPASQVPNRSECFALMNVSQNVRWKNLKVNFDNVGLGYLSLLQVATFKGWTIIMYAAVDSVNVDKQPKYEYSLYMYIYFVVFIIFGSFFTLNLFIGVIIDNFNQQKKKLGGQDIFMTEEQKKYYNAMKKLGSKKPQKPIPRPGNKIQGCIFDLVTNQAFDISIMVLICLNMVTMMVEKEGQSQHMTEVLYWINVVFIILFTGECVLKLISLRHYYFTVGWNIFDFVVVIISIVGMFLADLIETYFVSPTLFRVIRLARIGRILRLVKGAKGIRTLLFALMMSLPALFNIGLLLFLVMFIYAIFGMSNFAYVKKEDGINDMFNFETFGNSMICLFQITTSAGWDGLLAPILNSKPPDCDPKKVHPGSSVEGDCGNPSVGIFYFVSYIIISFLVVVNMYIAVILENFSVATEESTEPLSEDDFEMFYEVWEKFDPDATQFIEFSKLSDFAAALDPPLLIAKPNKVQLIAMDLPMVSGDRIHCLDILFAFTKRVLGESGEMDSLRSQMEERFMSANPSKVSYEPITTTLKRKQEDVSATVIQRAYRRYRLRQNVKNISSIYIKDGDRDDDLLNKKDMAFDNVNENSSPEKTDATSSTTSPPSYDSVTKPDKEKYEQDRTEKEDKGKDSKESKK
Chain of human Nav1.7 (Q07699 19-218 partner): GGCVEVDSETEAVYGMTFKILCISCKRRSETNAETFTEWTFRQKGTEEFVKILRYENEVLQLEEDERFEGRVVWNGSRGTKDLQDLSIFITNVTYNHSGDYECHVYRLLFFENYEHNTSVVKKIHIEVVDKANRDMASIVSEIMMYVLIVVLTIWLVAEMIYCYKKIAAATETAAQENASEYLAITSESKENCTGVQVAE

Take `Cc1ccc(-c2ccc3c(c2)C[C@@H](NC(=O)c2cc4n(n2)CCC(C(F)(F)F)O4)CO3)cn1` (some centres unmarked) [Example 175]: the IC50 against human Nav1.5 (setting [1]) was not below 3000 nM; against human Nav1.7 (setting [2]), less than 10000 nM.
In the same order, the values of `O=C(N[C@H]1COc2ccc(Cl)cc2C1)c1cc2n(n1)CC(CCNCC(F)(F)F)O2` (single isomer, unassigned) [226 (isomer B)] are 1000 to 3000 nM and less than 1000 nM.
On to `CN(C(=O)c1cn2c(n1)CCC(C(F)(F)F)C2)[C@H]1COc2ccc(Cl)cc2C1` (single isomer, unassigned) [Example 4], for which the IC50 on human Nav1.5 (setting [3]) was not below 3000 nM; on human Nav1.7 (setting [4]) it was less than 10000 nM.
On to `O=C(N[C@H]1COc2ccc(Cl)cc2C1)c1cc2n(n1)CCC(CNCC(F)(F)F)O2` (some centres unmarked) [Example 151], for which the IC50 at human Nav1.5 (setting [1]) was 1000 to 3000 nM; against human Nav1.7 (setting [2]), less than 1000 nM.
In the same order, the values of `N#Cc1ccc2c(c1)C[C@@H](NC(=O)c1cc3n(n1)CC(CCSCC(F)(F)F)O3)CO2` (some centres unmarked) [Example 243] are not below 3000 nM and less than 1000 nM.
In the case of `N#Cc1ccc2c(c1)C[C@@H](NC(=O)c1cc3n(n1)CCC(c1c(F)cccc1F)O3)CO2` (some centres unmarked) [Example 366], the IC50 at human Nav1.5 (setting [1]) was 1000 to 3000 nM; against human Nav1.7 (setting [2]) it was less than 1000 nM.
On to `O=C(N[C@H]1COc2ccc(CC(F)F)cc2C1)c1cc2n(n1)CC(CCOC(F)F)O2` (some centres unmarked) [Example 218], for which the IC50 against human Nav1.5 (setting [1]) is not below 3000 nM; on human Nav1.7 (setting [2]) it was less than 1000 nM.
As to `O=C(N[C@H]1COc2ccc(C(F)(F)F)cc2C1O)c1cc2n(n1)CC(CCOCC(F)(F)F)O2` (single isomer, unassigned) [600 (isomer B)], the IC50 was 1000 to 3000 nM against human Nav1.5 (setting [1]) and less than 1000 nM at human Nav1.7 (setting [2]).
For `CN1Cc2nc(C(=O)N[C@H]3COc4ccccc4C3)cn2CC1CCC1CCCC1` (some centres unmarked) [Example 52], the figures for the IC50 against human Nav1.5 (setting [3]) and against human Nav1.7 (setting [4]) were 1000 to 3000 nM and less than 1000 nM, respectively.
As for `N#Cc1ccc2c(c1)C[C@@H](NC(=O)c1cc3n(n1)CCC(COCC1(F)CC1)O3)CO2` (mixture of isomers) [Example 532], the IC50 against human Nav1.5 (setting [1]) was not below 3000 nM; on human Nav1.7 (setting [2]), less than 10000 nM.
Turning to `N#CC1(COCC2CCn3nc(C(=O)N[C@H]4COc5ccc(Cl)cc5C4)cc3O2)CC1` (some centres unmarked) [Example 538], the IC50 against human Nav1.5 (setting [1]) was not below 3000 nM; on human Nav1.7 (setting [2]), less than 1000 nM.
Consider `O=C(N[C@H]1COc2ccc(-c3cccnc3)cc2C1)c1cc2n(n1)CCN(c1ccc(F)cc1)C2` [Example 279], for which the IC50 against human Nav1.5 (setting [1]) is not below 3000 nM; against human Nav1.7 (setting [2]) it was less than 1000 nM.
For the compound `CN1Cc2nc(C(=O)NCCc3cccc(C(F)(F)F)c3)cn2CC1c1cccnc1C(F)(F)F` (centres unmarked) [Example 326], the IC50 against human Nav1.5 (setting [1]) is not below 3000 nM; against human Nav1.7 (setting [2]), less than 10000 nM.
As to `O=C(N[C@H]1COc2ccccc2C1)c1cn2c(n1)COC(c1ccccc1)C2` (some centres unmarked) [Example 340], the IC50 is not below 3000 nM against human Nav1.5 (setting [1]) and less than 10000 nM against human Nav1.7 (setting [2]).
With `O=C(NC1COc2ccc(F)cc2C1)c1cn2c(n1)CCC(C(F)(F)F)C2` (centres unmarked) [Example 1, N-(6-fluorochroman-3-yl)-6-(trifluoromethyl)-5,6,7,8-tetrahydroimidazo[1,2-a]pyridine-2-carboxamide], the IC50 at human Nav1.5 (setting [3]) was not below 3000 nM; on human Nav1.7 (setting [4]) it was less than 10000 nM.
For `Cn1cc(-c2ccc3c(c2)C[C@@H](NC(=O)c2cc4n(n2)CC(CCOCC2CC2)O4)CO3)cn1` (some centres unmarked) [Example 460], the values for the IC50 on human Nav1.5 (setting [1]) and on human Nav1.7 (setting [2]) were not below 3000 nM and less than 1000 nM, respectively.
As for `O=C(N[C@H]1COc2ccc(Cl)cc2C1)c1cc2n(n1)CCC(c1ccnc(C(F)(F)F)c1)O2` (some centres unmarked) [Example 362], the figures for the IC50 against human Nav1.5 (setting [1]) and on human Nav1.7 (setting [2]) were not below 3000 nM and less than 10000 nM, respectively.
Taken in the same sequence, the figures for `CC(F)(F)C1CCn2nc(C(=O)N[C@H]3COc4ccc(Cl)cc4C3)cc2O1` (some centres unmarked) [Example 167] were 1000 to 3000 nM and less than 1000 nM.
Consider `O=C(N[C@H]1COc2ccc(CC(F)F)cc2C1)c1cc2n(n1)CCC(COCC1CC1)O2` (single isomer, unassigned) [109 (isomer B)], for which the IC50 on human Nav1.5 (setting [3]) is not below 3000 nM; against human Nav1.7 (setting [4]) it was less than 10000 nM.

The term IC50 denotes the concentration at which inhibition is half-maximal. A high value points to weaker potency in that assay.
